Test results reported in patent publication EP0863769B1 (priority 1996, dated 1998).

Molecular target: A/England/12/64
Assay type: binding, Influenza Viren
Conditions: read-out: Affinität der Bindung an Virus, Kaff

## Poly-N-(2-Hydroxyethyl)-acrylamid mit 20% mol. 6SLN [6SLN-PAA]
  Kd: 100 nM
